# Reference: patent EP0133934A2, “Pharmacologically active 1,3,4-thiadiazol-(3,2-a)-thieno-(2,3-d)-pyrimidin-5-(H)one derivatives” (NIKEPHARMA S.r.l., priority 1983, dated 1985)
# Tests used:
# carrageenin oedema = test: Antiinflammatory activity: carrageenin oedema in the rat; assay type: in vivo; conditions: po, 4 h, os, 100 mg/kg, one hour before carrageenin, read-out: OEDEMA INHIBITION % at the fourth hour
# Protocol: (§1) The activity tests were carried out on male Spra gue-Dawley rats weighing 200+20 g and on male Swiss mice weighing 26+3 g.
# (§2) The test compounds were administered orally by means of gastroesophageal tube, in the form of a suspen sion in a 10 ml/kg mucilage of 5% gum arabic; and intraperitoneally in the form of an aqueous suspen sion added with a few drops of Tween 80, in the con stant volume of 10 ml/kg.
# The compounds under test and the control ones were administered orally one hour before the injection of 0.1 ml of 1% carrageenin in the right paw of the animals.
# The volume of the paw was measured by means of a plethysmograph immediately before the injection and 2, 4 and 6 hours after.
# The results were expressed as percentage inhibi tion of the oedema in the treated animals in comparison with the control animals, at the time of the maximum oedema development (fourth hour after the carrageenin injection).
# [1] = system: Writhing test induced by phenyl-benzoquinone; test: Phenylbenzoquinone writhing test in the rat; assay type: in vivo
# Protocol: as §1, §2
# acetic acid peritonitis = test: Anti-exudative activity: acetic acid peritonitis in the rat; assay type: in vivo; conditions: for EXUDATE VOLUME ml ± E.S.: controls 2.58 ± 0.18
# Protocol: The test was carried out according to the procedure described by Arrigoni-Martelli (Boll.Chim. Far. 107, 29, 1968). This method is based upon the evaluation of the anti-exudative effect of a drug at the peritoneal level, following a intraperitoneal injection of 10 ml/kg of a 0.5% acetic acid solution.
# The compounds under test were administered oral ly one hour before the inflammatory agent; 30 minutes after the treatment the animals were killed and the fluid from the peritoneal cavity was drawn and measured.
# The test compounds were administered by oral route 1 hour before intraperitoneal injection of acetic acid (10 ml/kg of a 0.5% solution).
# The anti-exudative activity was determined on the basis of the peritoneal exudate of the treated animals, in comparison with the controls.
# gastric ulceration = assay type: in vivo, rat; conditions: os, 400 mg/kg
# Protocol: To rats fasted for 18 hours, with water ad libitum, were administered the compounds under test at "0" time and after 2 hours. Control rats were treated with established anti-inflammatory agents.
# 6 Hours after the beginning of the test, the animals were killed by ether inhalation.
# Gastric ulceration was assessed on the ground of values ranging from 0 to 4: • 0 = no ulceration; • 1 = slight iperhaemia and/or a few ulcers; • 2 = severe iperhaemia and many punctiform ulcers; • 3 = severe submucosal hemorrage, one large ulcer and many punctiform ulcers; • 4 severe submucosal hemorrage and many large ulcers.
# The ulcerogenic index was measured by the following formula (Lwoff. J.M., J. Pharmacol., 2, 81, 1971): [formula]
# [2] = system: phenylbenzoquinone writhing test; test: Phenylbenzoquinone writhing test in the mouse (ED50 and duration of effect); assay type: in vivo; conditions: for % INHI-BITION / N° OF WRITHES IN 10' ml ± E.S.: Table 6, oral, one hour before the test; for N° OF WRITHES IN 10' ml ± E.S.: controls 52.4 ± 1.69; for % INHIBITION / Nº OF WRITHES IN 10' ml ± E.S.: Table 7, oral 1 mg/kg; for Nº OF WRITHES IN 10' ml ± E.S.: controls 53.2 ± 1.26
# Protocol: The analgesic effect was determined by the number of writhes of the abdomen recorded during 10 minutes (from 5 to 15 minutes after the phenylbenzo quinone injection).
# Carrageenin pleuritis = Carrageenin pleuritis in the rat; assay type: in vivo; conditions: for EXUDATE VOLUME: 30 min. before carrageenin and 6 hours after, exudate at 18 hours, controls 2.76 ± 0.38
# Protocol: Compound HA-34 was tested for the protective activity against the exudative pleuritis reaction induced by carrageenin. HA-34 was administered 30 min. before the injection of carrageenin, and 6 hours after it. The experiment was carried out on male Spra- gue-Dawley rats, anestethized with ethyl urethane, which were subjected, in their right pleural cavity, to injection of 1.5 ml of air and then 0.1 ml of a 1% carrageenin solution, in sterile normal saline, according to the procedure by Van Armann et al. (J. Pharmac. Exp. Ther., 150, 328, 1965). Indometha cin and Piroxicam were employed as the control drugs, under the same conditions. 18 Hours after the intrapleuric carrageenin injec tion, the animals were killed by means of ether inhalation, and the pleuric exudate was collected and measured.
# [3] = 30 min. before phenylbenzoquinone
smiles,measurement,setting,value
"CSc1nn2c(=O)c3c4c(sc3nc2s1)CCCC4 [HA 34, 2-Methyl-mercapto-6,7,8,9-tetrahydro-5H[1]-benao-thieno[2,3-d]-1,3,4-thiadiazole[3,2-a]pyrimidin-5[H]-one]",inhibition in vivo at 100 mg/kg,carrageenin oedema,48.8 ± 0.91%
same,inhibition in vivo at 0.5 mg/kg,"[1]; Rattus norvegicus, po, 10 min, os, 0.5 mg/kg, read-out: % INHIBI-TION",24%
same,inhibition in vivo at 5 mg/kg,"[1]; Rattus norvegicus, po, 10 min, os, 5 mg/kg, read-out: % INHIBI-TION",81%
same,analgesic action,"[1]; oral doses of 5 and 0.5 mg/kg, result in words",the more active of the tested compounds
same,inhibition in vivo at 10 mg/kg,"acetic acid peritonitis; Rattus norvegicus, po, Table 4, os, 10 mg/kg",64%
same,inhibition in vivo at 0.1 mg/kg,"acetic acid peritonitis; Rattus norvegicus, po, Table 8, oral, 0.1 mg/kg",26.7%
same,inhibition in vivo at 0.5 mg/kg,"acetic acid peritonitis; Rattus norvegicus, po, Table 8, oral, 0.5 mg/kg",48%
same,inhibition in vivo at 1 mg/kg,"acetic acid peritonitis; Rattus norvegicus, po, Table 8, oral, 1 mg/kg",53.2%
same,inhibition in vivo at 10 mg/kg,"acetic acid peritonitis; Rattus norvegicus, po, Table 8, oral, 10 mg/kg",78.8%
same,inhibition in vivo at 20 mg/kg,"acetic acid peritonitis; Rattus norvegicus, po, Table 8, oral, 20 mg/kg",94.2%
same,ED50,"acetic acid peritonitis; Rattus norvegicus, oral administration 1 hour before i.p. acetic acid",0.7 mg/kg
same,PERITONEAL EXUDATE ml ± E.S.,"acetic acid peritonitis; Table 4, os, 10 mg/kg, controls 2.91 ± 0.12",0.75 ± 0.11 mL
same,EXUDATE VOLUME ml ± E.S.,"acetic acid peritonitis; Table 8, oral, 0.1 mg/kg, 1 hour before acetic acid",1.89 ± 0.14 mL
same,EXUDATE VOLUME ml ± E.S.,"acetic acid peritonitis; Table 8, oral, 0.5 mg/kg",1.34 ± 0.07 mL
same,EXUDATE VOLUME ml ± E.S.,"acetic acid peritonitis; Table 8, oral, 1 mg/kg",1.20 ± 0.10 mL
same,EXUDATE VOLUME ml ± E.S.,"acetic acid peritonitis; Table 8, oral, 10 mg/kg",0.54 ± 0.08 mL
same,EXUDATE VOLUME ml ± E.S.,"acetic acid peritonitis; Table 8, oral, 20 mg/kg",0.15 ± 0.07 mL
same,ULCERA-TION INDEX,gastric ulceration,0
same,% ANIMALS WITH ULCERS,"gastric ulceration; at 0 time and after 2 hours, killed at 6 hours",0%
same,ULCERA-TION DEGREE,gastric ulceration; scale 0 to 4,0
same,ED50,"[2]; Mus musculus, 1 h, oral administration one hour before the test, read-out: ED50",1 mg/kg
same,% INHI-BITION,[2]; 0.1 mg/kg,15.8%
same,N° OF WRITHES IN 10' ml ± E.S.,[2]; 0.1 mg/kg,44.1 ± 1.12
same,% INHI-BITION,[2]; 0.5 mg/kg,31.3%
same,N° OF WRITHES IN 10' ml ± E.S.,[2]; 0.5 mg/kg,36.0 ± 1.33
same,% INHI-BITION,[2]; 1 mg/kg,67.2%
same,N° OF WRITHES IN 10' ml ± E.S.,[2]; 1 mg/kg,17.2 ± 0.87
same,% INHI-BITION,[2]; 2 mg/kg,73.6%
same,N° OF WRITHES IN 10' ml ± E.S.,[2]; 2 mg/kg,13.8 ± 1.12
same,% INHI-BITION,[2]; 5 mg/kg,79.8%
same,N° OF WRITHES IN 10' ml ± E.S.,[2]; 5 mg/kg,10.6 ± 1.06
same,% INHIBITION,[2]; [3],63.9%
same,Nº OF WRITHES IN 10' ml ± E.S.,[2]; [3],19.2 ± 1.18
same,% INHIBITION,[2]; 1 h before phenylbenzoquinone,65.4%
same,Nº OF WRITHES IN 10' ml ± E.S.,[2]; 1 h before phenylbenzoquinone,18.4 ± 1.07
same,% INHIBITION,[2]; 3 h before phenylbenzoquinone,69.9%
same,Nº OF WRITHES IN 10' ml ± E.S.,[2]; 3 h before phenylbenzoquinone,16.0 ± 1.26
same,% INHIBITION,[2]; 4 h before phenylbenzoquinone,65.4%
same,Nº OF WRITHES IN 10' ml ± E.S.,[2]; 4 h before phenylbenzoquinone,18.4 ± 1.74
same,% INHIBITION,[2]; 6 h before phenylbenzoquinone,62.0%
same,Nº OF WRITHES IN 10' ml ± E.S.,[2]; 6 h before phenylbenzoquinone,20.2 ± 1.24
same,% INHIBITION,[2]; 8 h before phenylbenzoquinone,59.4%
same,Nº OF WRITHES IN 10' ml ± E.S.,[2]; 8 h before phenylbenzoquinone,21.6 ± 1.32
same,% INHIBITION,[2]; 24 h before phenylbenzoquinone,58.3%
same,Nº OF WRITHES IN 10' ml ± E.S.,[2]; 24 h before phenylbenzoquinone,22.2 ± 1.46
same,% INHIBITION,[2]; 32 h before phenylbenzoquinone,30.6%
same,Nº OF WRITHES IN 10' ml ± E.S.,[2]; 32 h before phenylbenzoquinone,36.9 ± 2.01
same,duration of action,"[2]; oral 1 mg/kg, result in words",longer lasting than that of Indomethacin and substantially comparable with that of Piroxicam
same,% INHIBITION,Carrageenin pleuritis; 5 mg/kg,34.8%
same,EXUDATE VOLUME,Carrageenin pleuritis; 5 mg/kg,1.80 ± 0.29
same,% INHIBITION,Carrageenin pleuritis; 10 mg/kg,63.0%
same,EXUDATE VOLUME,Carrageenin pleuritis; 10 mg/kg,1.02 ± 0.26
same,inhibiting action on the pleuric exudative reaction,"Carrageenin pleuritis; at the tested doses, result in words",significant inhibiting action
